Reference: ChEMBL document CHEMBL3769302, “2-Oxo-1,2-dihydropyridinyl-3-yl amide-based GPa inhibitors: Design, synthesis and structure-activity relationship study” (Eur J Med Chem, 2016)

How the values were obtained:
[1] = biological target: T1, Glycogen phosphorylase, muscle form (Oryctolagus cuniculus, UniProt P00489); experiment: Inhibition of rabbit muscle glycogen phosphorylase-a assessed as formation of inorganic phosphate from glucose-1-phosphate by colorimetry
T1 sequence (P00489 whole entry): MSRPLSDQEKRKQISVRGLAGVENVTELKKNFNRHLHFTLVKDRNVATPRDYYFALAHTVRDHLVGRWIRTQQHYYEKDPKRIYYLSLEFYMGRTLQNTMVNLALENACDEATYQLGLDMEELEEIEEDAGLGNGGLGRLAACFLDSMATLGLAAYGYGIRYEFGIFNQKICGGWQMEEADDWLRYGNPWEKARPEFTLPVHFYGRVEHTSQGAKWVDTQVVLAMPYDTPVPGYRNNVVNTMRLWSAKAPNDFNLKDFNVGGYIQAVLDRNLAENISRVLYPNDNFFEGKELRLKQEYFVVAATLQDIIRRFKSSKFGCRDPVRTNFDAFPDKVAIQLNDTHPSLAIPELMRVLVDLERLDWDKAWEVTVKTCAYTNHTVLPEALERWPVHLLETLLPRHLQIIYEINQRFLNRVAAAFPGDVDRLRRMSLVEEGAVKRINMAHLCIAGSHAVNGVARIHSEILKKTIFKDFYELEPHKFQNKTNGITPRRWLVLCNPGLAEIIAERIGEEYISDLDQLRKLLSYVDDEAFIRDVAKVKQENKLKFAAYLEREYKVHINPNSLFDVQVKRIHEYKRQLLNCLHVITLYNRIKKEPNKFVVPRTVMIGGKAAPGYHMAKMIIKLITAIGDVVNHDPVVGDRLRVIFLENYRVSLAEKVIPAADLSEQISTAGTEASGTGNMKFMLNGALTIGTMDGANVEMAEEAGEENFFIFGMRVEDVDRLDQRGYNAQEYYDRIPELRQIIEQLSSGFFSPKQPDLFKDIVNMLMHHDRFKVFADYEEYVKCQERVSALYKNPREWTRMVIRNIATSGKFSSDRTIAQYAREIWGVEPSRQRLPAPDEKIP

[2] = biological target: T2, Glycogen phosphorylase, muscle form (Oryctolagus cuniculus) (UniProt P00489); experiment: Inhibition of rabbit muscle glycogen phosphorylase-a assessed as formation of inorganic phosphate from glucose-1-phosphate at 222 uM by colorimetry
T2 sequence (whole entry): T1 sequence (P00489 whole entry)

[3] = biological target: T2, Glycogen phosphorylase, muscle form (Oryctolagus cuniculus); experiment: Inhibition of rabbit muscle glycogen phosphorylase-a assessed as formation of inorganic phosphate from glucose-1-phosphate at 44 uM by colorimetry
[4] = biological target: T2, Glycogen phosphorylase, muscle form (Oryctolagus cuniculus); experiment: Inhibition of rabbit muscle glycogen phosphorylase-a assessed as formation of inorganic phosphate from glucose-1-phosphate at 444 uM by colorimetry
[5] = biological target: T2, Glycogen phosphorylase, muscle form (Oryctolagus cuniculus); experiment: Inhibition of rabbit muscle glycogen phosphorylase-a assessed as formation of inorganic phosphate from glucose-1-phosphate at 11.1 uM by colorimetry
[6] = biological target: T2, Glycogen phosphorylase, muscle form (Oryctolagus cuniculus); experiment: Inhibition of rabbit muscle glycogen phosphorylase-a assessed as formation of inorganic phosphate from glucose-1-phosphate at 20 uM by colorimetry
[7] = biological target: T2, Glycogen phosphorylase, muscle form (Oryctolagus cuniculus); experiment: Inhibition of rabbit muscle glycogen phosphorylase-a assessed as formation of inorganic phosphate from glucose-1-phosphate at 440 uM by colorimetry
[8] = biological target: T2, Glycogen phosphorylase, muscle form (Oryctolagus cuniculus); experiment: Inhibition of rabbit muscle glycogen phosphorylase-a assessed as formation of inorganic phosphate from glucose-1-phosphate at 90 uM by colorimetry
[9] = biological target: T2, Glycogen phosphorylase, muscle form (Oryctolagus cuniculus); experiment: Inhibition of rabbit muscle glycogen phosphorylase-a assessed as formation of inorganic phosphate from glucose-1-phosphate at 4.4 mM by colorimetry

Row | SMILES | IC50 ([1]; read-out: IC50) [µM] | inhibition [2] [%] | also measured
1 | O=C(Cn1cccc(NCc2ccc(Cl)c(Cl)c2)c1=O)NCc1ccc(Cl)c(Cl)c1 | 1.92 |  | 
2 | CCOC(=O)Cn1cccc(NCc2ccc(Cl)cc2)c1=O |  | 75 | 
3 | O=C(Cn1cccc(NCc2ccccc2)c1=O)NCCc1ccc(Cl)cc1Cl |  |  | inhibition [3]: 93%
4 | O=C(Cn1cccc(NCCCc2ccccc2)c1=O)NCCc1ccc(Cl)c(Cl)c1 | 68 |  | 
5 | O=C(Cn1cccc(NCc2ccc(Cl)c(Cl)c2)c1=O)NCCc1ccc(Cl)cc1Cl |  |  | inhibition [3]: 22%
6 | CCOC(=O)Cn1cccc(NCc2cccn2S(=O)(=O)c2ccc(C)cc2)c1=O |  | 75 | 
7 | O=C(Cn1cccc(NCc2ccccc2Cl)c1=O)NCc1ccc(Cl)c(Cl)c1 | 18.5 | 77 | 
8 | O=C(Cn1cccc(NCc2ccccc2)c1=O)Nc1ccccc1 |  |  | IC50 [1]: Not Active
9 | O=C(Cn1cccc(NCc2ccc(Cl)c(Cl)c2)c1=O)Nc1ccc(Cl)c(Cl)c1 |  | 98 | IC50 ([1]; read-out: IC50(app)): 18.5 µM
10 | O=C(Cn1cccc(NCc2ccccc2)c1=O)NCCc1ccc(Cl)c(Cl)c1 |  |  | inhibition [4]: 80%
11 | Cc1ccc(S(=O)(=O)n2cccc2CNc2cccn(CC(=O)NCc3ccc(Cl)c(Cl)c3)c2=O)cc1 | 3.4 |  | 
12 | O=C(Cn1cccc(NCc2ccc(Cl)c(Cl)c2)c1=O)NCCc1ccc(Cl)c(Cl)c1 |  |  | IC50 ([1]; read-out: IC50(app)): 22.5 µM; inhibition [5]: 98%
13 | CCOC(=O)Cn1cccc(NCc2ccc(Cl)c(Cl)c2)c1=O |  | 43 | 
14 | O=C(Cn1cccc(NCc2ccc([N+](=O)[O-])cc2)c1=O)NCc1ccc(Cl)c(Cl)c1 |  |  | IC50 ([1]; read-out: IC50(app)): 2.5 µM; inhibition [5]: 100%
15 | O=C(Cn1cccc(NCc2ccccn2)c1=O)NCc1ccc(Cl)c(Cl)c1 |  |  | IC50 [1]: Not Active
16 | O=C(Cn1cccc(NCc2ccccc2Cl)c1=O)Nc1ccc(Cl)c(Cl)c1 | 57 |  | 
17 | CCCNC(=O)Cn1cccc(NCc2ccc(Cl)c(Cl)c2)c1=O |  | 67 | 
18 | Cc1ccc(S(=O)(=O)Nc2cccn(CC(=O)NCc3ccc(Cl)c(Cl)c3)c2=O)cc1 |  | 37 | 
19 | O=C(Cn1cccc(NCc2cccc(Cl)c2)c1=O)NCc1ccc(Cl)c(Cl)c1 | 5.66 |  | 
20 | O=C(Cn1cccc(NCc2ccc(Cl)cc2)c1=O)NCc1ccc(Cl)c(Cl)c1 | 2.1 |  | 
21 | O=C(Cn1cccc(NCc2cccc(Cl)c2)c1=O)Nc1ccc(Cl)c(Cl)c1 |  |  | inhibition [6]: 33%
22 | O=C(Cn1cccc(NCc2ccc(Cl)c(Cl)c2)c1=O)Nc1ccccc1 |  |  | inhibition [7]: 19%
23 | O=C(Cn1cccc(NCc2ccccc2)c1=O)Nc1ccc(Cl)c(Cl)c1 |  |  | inhibition [8]: 41%
24 | O=C(Cn1cccc(NCc2ccc(Cl)c(Cl)c2)c1=O)NCc1ccccc1 | 10.2 |  | 
25 | O=C(Cn1cccc(NCc2cccs2)c1=O)NCc1ccc(Cl)c(Cl)c1 |  | 73 | IC50 ([1]; read-out: IC50(app)): 19.5 µM
26 | O=C(Cn1cccc(NCCCc2ccccc2)c1=O)NCc1ccc(Cl)c(Cl)c1 |  |  | inhibition [9]: 33%
27 | O=C(Cn1cccc(NC(=O)c2ccccc2)c1=O)Nc1ccc(Cl)c(Cl)c1 |  | 100 | IC50 ([1]; read-out: IC50(app)): 13 µM
28 | O=C(Cn1cccc(NCc2ccc(Cl)c(Cl)c2)c1=O)NCCc1ccccc1 | 31.3 |  | 
29 | O=C(Cn1cccc(NCc2ccc(Cl)cc2)c1=O)Nc1ccc(Cl)c(Cl)c1 |  |  | IC50 [1]: Not Active
